Data published in ChEMBL document CHEMBL4396916, “Novel potent substituted 4-amino-2-thiopyrimidines as dual VEGFR-2 and BRAF kinase inhibitors” (Eur J Med Chem, 2019).

What was measured:
[1] = target: Vascular endothelial growth factor receptor 2 (Homo sapiens, UniProt P35968); experiment: Inhibition of human N-terminal GST tagged VEGFR-2 expressed in baculovirus infected Sf9 cells using poly (Glu,Tyr) 4:1 as substrate in presence of ATP by Kinase-Glo luminescence assay
HL-60(TB) = experiment: Growth inhibition of human HL-60(TB) cells at 10 uM incubated for 48 hrs by sulforhodamine B assay relative to control; format: functional; details: HL-60, 48 h, read-out: GI
K562 = experiment: Growth inhibition of human K562 cells at 10 uM incubated for 48 hrs by sulforhodamine B assay relative to control; format: functional; details: K562, 48 h, read-out: GI
A549 = experiment: Growth inhibition of human A549/ATCC cells at 10 uM incubated for 48 hrs by sulforhodamine B assay relative to control; format: functional; details: A549, 48 h, read-out: GI
EKVX = experiment: Growth inhibition of human EKVX cells at 10 uM incubated for 48 hrs by sulforhodamine B assay relative to control; format: functional; details: read-out: GI
NCI-H23 = experiment: Growth inhibition of human NCI-H23 cells at 10 uM incubated for 48 hrs by sulforhodamine B assay relative to control; format: functional; details: NCI-H23, 48 h, read-out: GI
NCI-H522 = experiment: Growth inhibition of human NCI-H522 cells at 10 uM incubated for 48 hrs by sulforhodamine B assay relative to control; format: functional; details: NCI-H522, 48 h, read-out: GI
COLO 205 = experiment: Growth inhibition of human COLO205 cells at 10 uM incubated for 48 hrs by sulforhodamine B assay relative to control; format: functional; details: COLO 205, 48 h, read-out: GI
HCT-15 = experiment: Growth inhibition of human HCT15 cells at 10 uM incubated for 48 hrs by sulforhodamine B assay relative to control; format: functional; details: HCT-15, 48 h, read-out: GI
HT-29 = experiment: Growth inhibition of human HT-29 cells at 10 uM incubated for 48 hrs by sulforhodamine B assay relative to control; format: functional; details: HT-29, 48 h, read-out: GI
KM12 = experiment: Growth inhibition of human KM12 cells at 10 uM incubated for 48 hrs by sulforhodamine B assay relative to control; format: functional; details: KM12, 48 h, read-out: GI
SW-620 = experiment: Growth inhibition of human SW620 cells at 10 uM incubated for 48 hrs by sulforhodamine B assay relative to control; format: functional; details: SW-620, 48 h, read-out: GI
SF-268 = experiment: Growth inhibition of human SF268 cells at 10 uM incubated for 48 hrs by sulforhodamine B assay relative to control; format: functional; details: SF-268, 48 h, read-out: GI
SF-295 = experiment: Growth inhibition of human SF295 cells at 10 uM incubated for 48 hrs by sulforhodamine B assay relative to control; format: functional; details: SF-295, 48 h, read-out: GI
SF-539 = experiment: Growth inhibition of human SF539 cells at 10 uM incubated for 48 hrs by sulforhodamine B assay relative to control; format: functional; details: SF-539, 48 h, read-out: GI
M14 = experiment: Growth inhibition of human M14 cells at 10 uM incubated for 48 hrs by sulforhodamine B assay relative to control; format: functional; details: M14, 48 h, read-out: GI
MDA-MB-435 = experiment: Growth inhibition of human MDA-MB-435 cells at 10 uM incubated for 48 hrs by sulforhodamine B assay relative to control; format: functional; details: MDA-MB-435, 48 h, read-out: GI
SK-MEL-5 = experiment: Growth inhibition of human SK-MEL-5 cells at 10 uM incubated for 48 hrs by sulforhodamine B assay relative to control; format: functional; details: SK-MEL-5, 48 h, read-out: GI
UACC-257 = experiment: Growth inhibition of human UACC257 cells at 10 uM incubated for 48 hrs by sulforhodamine B assay relative to control; format: functional; details: UACC-257, 48 h, read-out: GI
IGROV-1 = experiment: Growth inhibition of human IGROV1 cells at 10 uM incubated for 48 hrs by sulforhodamine B assay relative to control; format: functional; details: IGROV-1, 48 h, read-out: GI
TK-10 = experiment: Growth inhibition of human TK10 cells at 10 uM incubated for 48 hrs by sulforhodamine B assay relative to control; format: functional; details: TK-10, 48 h, read-out: GI
T47D = experiment: Growth inhibition of human T47D cells at 10 uM incubated for 48 hrs by sulforhodamine B assay relative to control; format: functional; details: read-out: GI
HOP-92 = experiment: Growth inhibition of human HOP92 cells at 10 uM incubated for 48 hrs by sulforhodamine B assay relative to control; format: functional; details: HOP-92, 48 h, read-out: GI
SNB-75 = experiment: Growth inhibition of human SNB75 cells at 10 uM incubated for 48 hrs by sulforhodamine B assay relative to control; format: functional; details: SNB-75, 48 h, read-out: GI
RXF 393 = experiment: Growth inhibition of human RXF393 cells at 10 uM incubated for 48 hrs by sulforhodamine B assay relative to control; format: functional; details: RXF 393, 48 h, read-out: GI
Hs-578T = experiment: Growth inhibition of human Hs578T cells at 10 uM incubated for 48 hrs by sulforhodamine B assay relative to control; format: functional; details: read-out: GI

Vascular endothelial growth factor receptor 2, sequence (P35968 whole entry): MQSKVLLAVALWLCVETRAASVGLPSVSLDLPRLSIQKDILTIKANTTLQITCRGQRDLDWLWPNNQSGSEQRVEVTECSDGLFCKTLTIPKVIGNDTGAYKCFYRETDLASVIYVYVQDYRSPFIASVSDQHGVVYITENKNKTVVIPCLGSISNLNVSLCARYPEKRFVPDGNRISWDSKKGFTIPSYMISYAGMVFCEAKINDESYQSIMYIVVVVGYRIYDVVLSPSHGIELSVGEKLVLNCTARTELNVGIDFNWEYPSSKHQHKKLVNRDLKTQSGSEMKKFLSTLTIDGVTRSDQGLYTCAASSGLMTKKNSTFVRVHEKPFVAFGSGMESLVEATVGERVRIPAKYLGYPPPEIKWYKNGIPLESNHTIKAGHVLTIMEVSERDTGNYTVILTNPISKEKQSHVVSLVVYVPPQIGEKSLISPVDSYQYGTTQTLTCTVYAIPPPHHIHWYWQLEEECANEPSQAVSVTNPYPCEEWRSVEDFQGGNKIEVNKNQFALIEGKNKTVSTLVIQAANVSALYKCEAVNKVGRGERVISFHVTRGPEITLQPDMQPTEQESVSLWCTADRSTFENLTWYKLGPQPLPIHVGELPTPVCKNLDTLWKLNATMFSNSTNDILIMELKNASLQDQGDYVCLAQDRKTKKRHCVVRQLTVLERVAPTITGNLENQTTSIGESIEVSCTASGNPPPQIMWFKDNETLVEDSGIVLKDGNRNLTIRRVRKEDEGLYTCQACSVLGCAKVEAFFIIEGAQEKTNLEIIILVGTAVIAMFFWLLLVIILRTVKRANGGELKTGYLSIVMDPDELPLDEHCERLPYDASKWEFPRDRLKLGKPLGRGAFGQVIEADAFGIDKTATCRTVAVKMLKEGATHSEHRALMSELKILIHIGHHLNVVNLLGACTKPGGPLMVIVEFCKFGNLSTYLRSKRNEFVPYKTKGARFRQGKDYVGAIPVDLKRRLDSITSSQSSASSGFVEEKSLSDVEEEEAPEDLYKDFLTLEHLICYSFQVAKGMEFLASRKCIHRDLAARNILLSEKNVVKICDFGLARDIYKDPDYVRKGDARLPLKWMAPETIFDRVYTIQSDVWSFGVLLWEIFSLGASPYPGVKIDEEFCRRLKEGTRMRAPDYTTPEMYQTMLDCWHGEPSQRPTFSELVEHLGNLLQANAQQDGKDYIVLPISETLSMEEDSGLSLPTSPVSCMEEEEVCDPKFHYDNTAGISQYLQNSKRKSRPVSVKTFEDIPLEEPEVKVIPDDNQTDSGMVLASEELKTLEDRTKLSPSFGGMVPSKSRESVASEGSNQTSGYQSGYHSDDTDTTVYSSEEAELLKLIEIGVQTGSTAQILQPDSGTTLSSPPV

CCOC(=O)c1ccc(Nc2ccnc(SCC(=O)c3ccc(C#N)cc3)n2)cc1
IC50 [1]: 170 nM
inhibition of growth at 10 µM (HL-60(TB)): 24%
inhibition of growth at 10 µM (K562): 49%
inhibition of growth at 10 µM (A549): 39%
inhibition of growth at 10 µM (EKVX): 26%
inhibition of growth at 10 µM (NCI-H23): 20%
inhibition of growth at 10 µM (NCI-H522): 73%
inhibition of growth at 10 µM (COLO 205): 29%
inhibition of growth at 10 µM (HCT-15): 24%
inhibition of growth at 10 µM (HT-29): 24%
inhibition of growth at 10 µM (KM12): 45%
inhibition of growth at 10 µM (SW-620): 10%
inhibition of growth at 10 µM (SF-268): 22%
inhibition of growth at 10 µM (SF-295): 24%
inhibition of growth at 10 µM (SF-539): 17%
inhibition of growth at 10 µM (M14): 49%
inhibition of growth at 10 µM (MDA-MB-435): 32%
inhibition of growth at 10 µM (SK-MEL-5): 62%
inhibition of growth at 10 µM (UACC-257): 22%
inhibition of growth at 10 µM (IGROV-1): 21%
inhibition of growth at 10 µM (TK-10): 10%
inhibition of growth at 10 µM (T47D): 90%

O=C(CSc1nccc(Nc2ccc(N3CCOCC3)cc2)n1)c1ccc(F)cc1
IC50 [1]: 260 nM
inhibition of growth at 10 µM (K562): 28%
inhibition of growth at 10 µM (EKVX): 23%
inhibition of growth at 10 µM (HOP-92): 26%
inhibition of growth at 10 µM (NCI-H23): 21%
inhibition of growth at 10 µM (NCI-H522): 49%
inhibition of growth at 10 µM (SF-268): 35%
inhibition of growth at 10 µM (SNB-75): 65%
inhibition of growth at 10 µM (MDA-MB-435): 16%
inhibition of growth at 10 µM (SK-MEL-5): 37%
inhibition of growth at 10 µM (UACC-257): 19%
inhibition of growth at 10 µM (RXF 393): 43%
inhibition of growth at 10 µM (Hs-578T): 39%
inhibition of growth at 10 µM (T47D): 34%
